Measurements published in patent US8778966B2, “Quinolinone derivatives as PARP and tank inhibitors” (Janssen Pharmaceutica, NV, priority 2007, dated 2014).
Like-named read-outs stand apart in the source and are kept apart here.

Experiments:
PC3 cells = experiment: EB1 Comet (microtubule disruption) assay; format: cell-based, human; details: Homo sapiens, read-out: EB1 pLAC (converted)
In short: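 Readout is loss of Eb1 plus-end foci, scored by immunofluorescence microscopy, in PC3 cells after 1 h compound treatment at 37 °C with 0.6% final DMSO. LAC is defined as the lowest concentration leaving at least 50% of cells without Eb1 foci.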

Human PARP-1 enzyme = biological target: T1, Human PARP-1 enzyme (Homo sapiens, UniProt P09874); experiment: In vitro Scintillation Proximity Assay (SPA) for PARP-1 inhibitory activity; format: biochemical; details: read-out: in vitro SPA assay PARP-1 pIC50 (converted)
T1 construct: purchased Trevigen
T1 sequence (P09874 whole entry): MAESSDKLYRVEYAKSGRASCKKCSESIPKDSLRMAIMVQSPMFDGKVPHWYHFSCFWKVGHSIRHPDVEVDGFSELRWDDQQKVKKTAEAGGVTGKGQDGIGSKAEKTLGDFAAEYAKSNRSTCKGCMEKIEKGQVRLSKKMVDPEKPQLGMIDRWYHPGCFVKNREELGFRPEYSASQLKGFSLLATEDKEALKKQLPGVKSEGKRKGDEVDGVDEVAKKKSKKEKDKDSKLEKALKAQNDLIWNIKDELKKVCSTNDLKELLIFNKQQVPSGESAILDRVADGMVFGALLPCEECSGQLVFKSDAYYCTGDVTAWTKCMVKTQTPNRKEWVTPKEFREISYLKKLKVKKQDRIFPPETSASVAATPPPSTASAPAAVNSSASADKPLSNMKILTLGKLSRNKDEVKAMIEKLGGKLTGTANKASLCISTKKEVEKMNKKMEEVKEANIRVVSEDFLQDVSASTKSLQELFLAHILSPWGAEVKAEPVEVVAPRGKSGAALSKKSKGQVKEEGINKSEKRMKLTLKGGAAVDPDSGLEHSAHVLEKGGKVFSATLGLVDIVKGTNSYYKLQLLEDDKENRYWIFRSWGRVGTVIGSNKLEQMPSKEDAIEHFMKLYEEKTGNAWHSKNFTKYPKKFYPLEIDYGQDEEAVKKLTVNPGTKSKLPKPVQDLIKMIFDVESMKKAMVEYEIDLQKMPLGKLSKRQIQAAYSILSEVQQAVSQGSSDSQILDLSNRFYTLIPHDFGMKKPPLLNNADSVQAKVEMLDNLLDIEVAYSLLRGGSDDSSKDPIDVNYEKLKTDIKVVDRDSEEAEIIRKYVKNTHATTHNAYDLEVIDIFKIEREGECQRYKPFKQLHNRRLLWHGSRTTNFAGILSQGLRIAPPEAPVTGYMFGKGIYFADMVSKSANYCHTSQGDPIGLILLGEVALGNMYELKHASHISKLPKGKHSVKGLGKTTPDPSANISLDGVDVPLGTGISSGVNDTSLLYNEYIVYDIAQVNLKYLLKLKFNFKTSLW
In short: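 SPA assay: nicked-DNA-activated PARP-1 (0.1–0.2 μg/ml) ADP-ribosylates biotinylated histones (2 μg/ml) using [3H]-NAD+, 20 min at RT in Tris pH 8/DTT/MgCl2, stopped with 2 mM NAD+. Blank-subtracted cpm expressed as % control; IC50 by linear interpolation, reported as pIC50 (10−5 to 3×10−9 M tested).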

IC50 (Human PARP-1 enzyme) [nM] | SMILES | minimal effective concentration (PC3 cells; PC-3, 1 h, 1 hour treatment) [µM] | minimal effective concentration (PC3 cells; PC-3, 1 hour treatment) [µM]
316 | CCc1cc2ccc([C@](C)(C#N)Cc3ccccc3)cc2[nH]c1=O (single isomer, unassigned) [Compound 45] | > 10 | –
316 | CCc1cc2ccc([C@@](C)(C#N)Cc3ccccc3)cc2[nH]c1=O (single isomer, unassigned) [Compound 46] | 0.1 | –
398 | CCc1cc2ccc(C(C)(C#N)CC3COc4ccccc4O3)cc2[nH]c1=O (single isomer, unassigned) [Compound 47] | – | –
200 | CCc1cc2ccc([C@](C)(C#N)Cc3nc(OC)cc(OC)n3)cc2[nH]c1=O (single isomer, unassigned) [Compound 52] | 3.16 | –
50.1 | CCc1cc2ccc([C@@](C)(C#N)Cc3nc(OC)cc(OC)n3)cc2[nH]c1=O (single isomer, unassigned) [Compound 53] | 0.0316 | –
1000 | CCc1cc2ccc(C(C)(C#N)Cc3cccc(CN(C)C)c3)cc2[nH]c1=O (stereo not shown) [Compound 7] | 3.16 | –
501 | CCc1cc2ccc(C(C)(C#N)Cc3cccc(COC)c3)cc2[nH]c1=O (stereo not shown) [Compound 8] | 0.316 | –
200 | CCc1cc2ccc(C(C)(C#N)Cc3cccc(CO)c3)cc2[nH]c1=O (stereo not shown) [Compound 9] | 1 | –
2510 | CC(C#N)(Cc1ccccc1)c1ccc2cc(CO)c(=O)[nH]c2c1 (stereo not shown) [Compound 40] | – | –
1000 | CCc1cc2ccc(C(C)(C#N)Cc3c(F)ccc(C)c3F)cc2[nH]c1=O (stereo not shown) [Compound 41] | 0.316 | –
200 | CCc1cc2ccc(C(C)(C#N)Cc3nnsc3Cl)cc2[nH]c1=O (stereo not shown) [Compound 42] | 0.1 | –
200 | CCc1cc2ccc(C(C)(C#N)Cc3nc(OC)cc(OC)n3)cc2[nH]c1=O (stereo not shown) [Compound 43] | – | –
316 | CCc1cc2ccc(C(C)(C#N)Cc3ccccc3)cc2[nH]c1=O (stereo not shown) [Compound 44] | – | –
316 | CCc1cc2ccc(C(C)(C#N)Cc3cccc(Br)c3)cc2[nH]c1=O (stereo not shown) [Compound 49] | 0.316 | –
126 | CCc1cc2ccc(C(C)(C#N)Cc3cccc(C#N)c3)cc2[nH]c1=O (stereo not shown) [Compound 51] | 0.316 | –
158 | CCc1cc2ccc(C(C)(C#N)CCOc3ccc([N+](=O)[O-])cc3)cc2[nH]c1=O (stereo not shown) [Compound 54] | 0.316 | –
3980 | CCc1cc2ccc(C(C)(C#N)Cc3cccc(CN4CCN(C)CC4)c3)cc2[nH]c1=O (stereo not shown) [Compound 57] | – | –
501 | CCc1cc2ccc(C(C)(C#N)Cc3cccc(CN4CCOCC4)c3)cc2[nH]c1=O (stereo not shown) [Compound 58] | 3.16 | –
631 | CCc1cc2ccc(C(C)(C#N)Cc3cccc(CNC)c3)cc2[nH]c1=O (stereo not shown) [Compound 59] | 10 | –
794 | CCc1cc2ccc(C(C)(C#N)Cc3cccc(CNCCOC)c3)cc2[nH]c1=O (stereo not shown) [Compound 60] | – | –
1000 | CCc1cc2ccc(C(C)(C#N)Cc3cccc(CNCCN4CCOCC4)c3)cc2[nH]c1=O (stereo not shown) [Compound 61] | – | –
501 | CCc1cc2ccc(C(C)(C#N)Cc3cccc(C(=O)NCCOC)c3)cc2[nH]c1=O (stereo not shown) [Compound 62] | – | –
1000 | CCc1cc2ccc(C(C)(C#N)Cc3cccc(C(=O)N(C)C)c3)cc2[nH]c1=O (stereo not shown) [Compound 63] | 3.16 | –
794 | CCc1cc2ccc(C(C)(C#N)Cc3cccc(N4CCNCC4)c3)cc2[nH]c1=O (stereo not shown) [Compound 64] | – | –
1260 | CCc1cc2ccc(C(C)(C#N)Cc3cccc(N4CCCCC4)c3)cc2[nH]c1=O (stereo not shown) [Compound 65] | – | –

IC50 (Human PARP-1 enzyme) [nM] | SMILES | minimal effective concentration (PC3 cells; PC-3, 1 h, 1 hour treatment) [µM] | minimal effective concentration (PC3 cells; PC-3, 1 hour treatment) [µM]
1260 | CCc1cc2ccc(C(C)(C#N)Cc3cccc(N4CCN(C)CC4)c3)cc2[nH]c1=O (stereo not shown) [Compound 66] | – | –
1000 | CCc1cc2ccc(C(C)(C#N)Cc3cccc(OCC4CC4)c3)cc2[nH]c1=O (stereo not shown) [Compound 67] | 0.316 | –
1000 | CCc1cc2ccc(C(C)(C#N)Cc3cccc(OCCCN4CCOCC4)c3)cc2[nH]c1=O (stereo not shown) [Compound 68] | – | –
794 | CCc1cc2ccc(C(C)(C#N)Cc3cccc(OCCCN4CCN(C)CC4)c3)cc2[nH]c1=O (stereo not shown) [Compound 69] | – | –
3980 | Cc1cc2ccc(C(C)(C#N)Cc3noc(-c4cccc(C(F)(F)F)c4)n3)cc2[nH]c1=O (stereo not shown) [Compound 70] | 3.16 | –
3160 | Cc1cc2ccc(C(C)(C#N)Cc3cc4ccccc4s3)cc2[nH]c1=O (stereo not shown) [Compound 71] | 1 | –
1260 | Cc1cc2ccc(C(C)(C#N)Cc3ccc(Cl)s3)cc2[nH]c1=O (stereo not shown) [Compound 72] | 0.316 | –
2000 | Cc1cc2ccc(C(C)(C#N)Cc3ccc(C(F)(F)F)o3)cc2[nH]c1=O (stereo not shown) [Compound 73] | 1 | –
1000 | Cc1cc2ccc(C(C)(C#N)Cc3cccc4cccnc34)cc2[nH]c1=O (stereo not shown) [Compound 74] | 3.16 | –
1260 | Cc1cc2ccc(C(C)(C#N)Cc3nc4ccccc4s3)cc2[nH]c1=O (stereo not shown) [Compound 75] | 0.316 | –
1580 | Cc1cc2ccc(C(C)(C#N)Cc3ccccc3)cc2[nH]c1=O (stereo not shown) [Compound 76] | 1 | –
398 | CCc1cc2ccc(C(C)(C#N)Cc3ccc(OC)c(C#N)c3)cc2[nH]c1=O (stereo not shown) [Compound 77] | 1 | –
1260 | CCc1cc2ccc(C(C)(C#N)Cc3cc(C)ccc3C)cc2[nH]c1=O (stereo not shown) [Compound 78] | 0.1 | –
794 | CCc1cc2ccc(C(C)(C#N)Cc3ccc(F)c(C)c3)cc2[nH]c1=O (stereo not shown) [Compound 79] | 1 | –
1580 | CCc1cc2ccc(C(C)(C#N)Cc3c(C)c(C)cc(C)c3C)cc2[nH]c1=O (stereo not shown) [Compound 88] | – | –
1580 | CCc1cc2ccc(C(C)(C#N)Cc3c(C)c(C)c(C)c(C)c3C)cc2[nH]c1=O (stereo not shown) [Compound 89] | – | –
126 | CCc1cc2ccc(C(C)(C#N)Cc3nncn3C)cc2[nH]c1=O (stereo not shown) [Compound 93] | – | –
126 | CCc1cc2ccc(C(C)(C#N)Cc3cccc4nnn(C)c34)cc2[nH]c1=O (stereo not shown) [Compound 94] | – | –
251 | CCc1cc2ccc(C(C)(C#N)Cc3nn(C)c4ccccc34)cc2[nH]c1=O (stereo not shown) [Compound 95] | – | –
126 | CCc1cc2ccc(C(C)(C#N)Cc3cn4ccccc4n3)cc2[nH]c1=O (stereo not shown) [Compound 96] | – | –
39.8 | CCc1cc2ccc(C(C)(C#N)Cc3cccnc3)cc2[nH]c1=O (stereo not shown) [Compound 97] | – | –
158 | CCc1cc2ccc(C(C)(C#N)Cc3ccncc3)cc2[nH]c1=O (stereo not shown) [Compound 98] | – | –
79.4 | CCc1cc2ccc(C(C)(C#N)CCOc3ccccc3C#N)cc2[nH]c1=O (stereo not shown) [Compound 276] | – | –
398 | CCc1cc2ccc(C(C)(C#N)CCOc3cc(Cl)c(Cl)cc3Cl)cc2[nH]c1=O (stereo not shown) [Compound 277] | – | –

SMILES | IC50 (Human PARP-1 enzyme) [nM] | minimal effective concentration (PC3 cells; PC-3, 1 h, 1 hour treatment) [µM] | minimal effective concentration (PC3 cells; PC-3, 1 hour treatment) [µM]
CCc1cc2ccc(C(C)(C#N)Cc3cccc(C#C[Si](C)(C)C)c3)cc2[nH]c1=O (stereo not shown) [Compound 1] | 398 | 1 | –
CCOP(=O)(OCC)c1cccc(CC(C)(C#N)c2ccc3cc(CC)c(=O)[nH]c3c2)c1 (stereo not shown) [Compound 50] | 2510 | – | 0.316
